Experimental data published in patent US10231463B2, “Food mass suitable for microwaving” (Chemische Fabrik Budenheim KG, priority 2013, dated 2019).

Experiments:
[1] = Pore volume by nitrogen gas adsorption (BJH method, BELSORP-mini II); type: physicochemical; details: total pore volume Vp, nitrogen adsorption at 77.3 K
From the text: Determining the Pore Volume
The pore volume in accordance with the present invention is characterised by means of gas adsorption. The recording of physisorption isotherms (adsorption and desorption isotherms) of inert gas molecules at low temperatures is routinely used for determining solids parameters.
The BJH method provides an algorithm for the calculation of pore width distribution from nitrogen adsorption data on the assumption of a cylindrical pore geometry. In that respect consideration is given to the change in the adsorbed volume in the pores in dependence on the pore radius, wherein the pore radius distribution function is related as a relative value to the total pore volume. […] It is assumed that the entire pore system is filled with a capillary condensate.

[2] = Thawing and baking trials with yeast-raised wheat frozen doughs in a microwave oven; details: yeast-raised wheat frozen dough; for ΔT (temperature difference between crust temperature and crumb temperature): 2 parts by weight additive, 600 watts, 120 seconds; for Microwave activity: assessment scale from ΔT
Procedure: Dough Composition (Basic Recipe):
In addition 2 parts by weight of microwave absorber were added to the basic recipe.
• Mixing and kneading time: 3+2 minutes (the latter in a Stephan mixer) • Dough standing time: 20 minutes • Dough piece weight: 200 g • Cooking time of the dough pieces: 20 minutes • Freezing time: about 4 hours • Deep freeze storage time: about 2 days Thawing and Baking Trials:
The deep-frozen dough pieces were exposed to microwave radiation in a microwave oven from Panasonic (model: NN-GD560M—inverter microwave) for a predetermined period of 120 seconds and with a predetermined microwave power of 600 watts (according to the device indication). After 2 minutes of standing time the temperature of the crust and the crumb was measured by means of an infrared temperature sensor at various measurement points on the dough piece.
Measurement value 1 (M1)=average crust temperature outside
Measurement value 2 (M2)=average crumb temperature in the interior of the dough piece.

| Compound | Pore Volume [1] | ΔT (temperature difference between crust temperature and crumb temperature) [2] | Microwave activity [2] |
| --- | --- | --- | --- |
| O.O.O=P([O-])([O-])O.[Ca+2] [DCPD, Dicalcium phosphate dihydrate] | 5.3 10^−3 cm^3/g | 26.2 °C | 2 (ΔT=25 to 40° C.=good) |
| O=C([O-])[O-].[Ca+2] [CaCO3, Calcium carbonate] | 9.0 10^−3 cm^3/g | 31.5 °C | 2 (ΔT=25 to 40° C.=good) |
| O.O=P([O-])(O)O.O=P([O-])(O)O.[Ca+2] [MCPM, Monocalcium phosphate monohydrate] | 23 10^−3 cm^3/g | 32.5 °C | 2 (ΔT=25 to 40° C.=good) |
| O=P([O-])(O)O.O=P([O-])(O)O.[Mg+2] [MSPA, Monomagnesium phosphate anhydrate] | 4.5 10^−3 cm^3/g | 41.1 °C | 1 (ΔT=>40° C.=very good) |
| Ammonium molybdate [AmMD(V), reference compound] | 2.6 10^−3 cm^3/g | 24.2 °C | 3 (ΔT=<25° C.=no additional activity) |
| O.O.O.O.O=P([O-])([O-])[O-].O=P([O-])([O-])[O-].[Mg+2].[Mg+2].[Mg+2] [TMP, Trimagnesium phosphate tetrahydrate] | 16 10^−3 cm^3/g | 41.0 °C | 1 (ΔT=>40° C.=very good) |
| O=P([O-])([O-])[O-].O=P([O-])([O-])[O-].[Ca+2].[Ca+2].[Ca+2] [TCP, Tricalcium phosphate] | 120 10^−3 cm^3/g | 36.2 °C | 2 (ΔT=25 to 40° C.=good) |
| O=P([O-])([O-])OP(=O)([O-])[O-].[Zn+2].[Zn+2] [ZPP, Zinc pyrophosphate] | 10.5 10^−3 cm^3/g | 37.9 °C | 2 (ΔT=25 to 40° C.=good) |
| [Cl-].[Cl-].[Mg+2] [MgCl2(V), Magnesium chloride, reference compound] | 2.0 10^−3 cm^3/g | 19.8 °C | 3 (ΔT=<25° C.=no additional activity) |
| O=P([O-])(O)O.O=P([O-])(O)O.[Ca+2] [MCPA(V), Monocalcium phosphate anhydrate, reference compound] | 2.3 10^−3 cm^3/g | 17.0 °C | 3 (ΔT=<25° C.=no additional activity) |
| Calcium gluconate [CaGl] | 10.0 10^−3 cm^3/g | 36.6 °C | 2 (ΔT=25 to 40° C.=good) |
| O.O.O=P([O-])([O-])[O-].O=P([O-])([O-])[O-].[Zn+2].[Zn+2].[Zn+2] [TZP, Trizinc phosphate dihydrate] | 6.3 10^−3 cm^3/g | 38.0 °C | 2 (ΔT=25 to 40° C.=good) |
| O=P([O-])([O-])OP(=O)([O-])[O-].[Na+].[Na+].[Na+].[Na+] [TSPP, Tetrasodium pyrophosphate] | 3.3 10^−3 cm^3/g | 40.8 °C | 1 (ΔT=>40° C.=very good) |
| O.O.O.O=P([O-])([O-])O.[Mg+2] [DMP, Dimagnesium phosphate trihydrate] | 6.0 10^−3 cm^3/g | 41.9 °C | 1 (ΔT=>40° C.=very good) |
| O=S(=O)([O-])[O-].O=S(=O)([O-])[O-].[Al+3].[Na+] [SAS, Acid sodium aluminium sulphate] | 3.9 10^−3 cm^3/g | 39.6 °C | 2 (ΔT=25 to 40° C.=good) |
